Patent US20220153741A1, “HETEROCYCLIC COMPOUNDS AS INHIBITORS OF KRAS G12C” (Guangdong Newopp Biopharmaceuticals Co., Ltd., priority 2019, published 2022)
pIC50: −log10 of the molar value. Like-named read-outs stand apart in the source and are kept apart here.

Tests used:
[1] = amide bond
[2] = from CC(C)c1nccc(CCC(=O)O)c1-n1c(=O)[nH]c(=O)c2cc(F)c(-c3c(N)cccc3Cl)nc21; amide bond; 12-membered ring; T3P; DCE; 39.3 mM; 50.0 °C
[3] = tested on: NCI-H358 (H358, KRAS G12C) cancer cell line; experiment: 3D proliferation assay, NCI-H358 (CellTiter-Glo); format: cell-based; settings: 96-well spheroid plate, 4 days
Description: (§1) 3D proliferation assay: NCI-H358 (H358, KRAS G12C) and LS513 (KRAS G12D) cancer cell lines were obtained from ATCC (American Type Culture Collection, VA). Cells were plated in 96-well spheroid plate (CORNING INC, NY)) in RPMI-1640 with 10% FBS. Compounds (11-point dilutions) and DMSO were added to the wells and incubated with cells for 4 days at 37° C. Cell viability was then determined by CellTiter-Glo (Promega, WI). IC50 values of compounds were determined as the concentration of 50% inhibition of cell viability compared to DMSO treated cells (A: IC50<0.1 μM; B: IC50 between 0.1 μM and 1 μM; C: IC50 between 1 μM and 10 μM; D: >10 μM; ND: not determined).

[4] = tested on: LS513 (KRAS G12D) cancer cell line; experiment: 3D proliferation assay, LS513 (CellTiter-Glo); format: cell-based; settings: 96-well spheroid plate, 4 days
Description: as §1

[5] = tested on: pERK1/2 in NCI-H358 cells; experiment: Phospho-ERK (pERK) assay in NCI-H358 cells; format: cell-based; settings: 3 hours compound treatment, pERK1/2 antibody fluorescence
Description: Phospho-ERK (pERK) assay: NCI-H358 cells were seeded in 96-well plates (Greiner) in RPMI-1640 with 10% FBS 16 hours prior to compound treatment. Serial dilution of compounds was made and added to wells, and then incubated at 37° C. for 3 hours. After the treatment, cells were fixed with 3.7% formaldehyde (VWR) for 20 min at RT, followed by being permeabilized with ice-cold methanol at −20° C. for 20 min. The methanol was then dumped and replaced with Intercept® (PBS) Blocking Buffer (LiCOR) supplemented with 0.05% Tween-20 and incubated at RT for 1 hour with gentle rocking. The blocking buffer was then replaced with the blocking buffer containing pERK1/2 antibody (Cell Signaling) and incubated at 4° C. overnight with gentle rocking. The plate was washed 5 times with 1×PBS+0.1% Tween-20. The blocking buffer containing LiCOR IRDye 680RD secondary antibody (LiCOR,) was then added and incubated for 1 hour at RT with gentle rocking. After washing 5 times with 1×PBS+0.1% Tween-20, the plate was read using CLARIOstar plate reader (BMG LABTECH GmbH). IC50 values were determined as the concentration of 50% inhibition of the fluorescence signal compared to DMSO treated cells (A: IC50<0.1 μM; B: IC50 between 0.1 μM and 1 μM; C: IC50 between 1 μM and 10 μM; D: >10 μM; ND: not determined).

## CC(C)c1cccc2c1-n1c(=O)[nH]c(=O)c3cc(F)c(nc31)-c1c(F)cccc1NC(=O)CN2
[1]; from CC(C)c1cccc(NCC(=O)O)c1-n1c(=O)[nH]c(=O)c2cc(F)c(-c3c(N)cccc3F)nc21, TCFH/N-methylimidazole/pyridine, MeCN/DMF (1:1), 66.0 mM, 11.0 h
  ring closure, yield of all isomers: 32.7%

## CC(C)c1nccc2c1-n1c(=O)[nH]c(=O)c3cc(F)c(nc31)-c1c(Cl)cccc1NC(=O)CC2
[1]; from CC(C)c1nccc(CCC(=O)O)c1-n1c(=O)[nH]c(=O)c2cc(F)c(-c3c(N)cccc3Cl)nc21, T3P, DCE, 39.3 mM, 50.0 °C, 1.0 h
  ring closure, yield of all isomers: 29%
[2]
  ring closure, isolated yield: 29%

## CC(C)c1nccc2c1-n1c(=O)[nH]c(=O)c3cc(F)c(nc31)-c1c(F)cccc1NC(=O)CCS2
[1]; from CC(C)c1nccc(SCCC(=O)O)c1-n1c(=O)[nH]c(=O)c2cc(F)c(-c3c(N)cccc3F)nc21, T3P, DCE, 58.3 mM, 55.0 °C, 16.0 h
  ring closure, yield of all isomers: 37.4%

## CC(C)c1nccc2c1-n1c(=O)nc(O)c3cc(F)c(nc31)-c1c(F)cccc1NC(=O)CC2
[1]; from CC(C)c1nccc(CCC(=O)O)c1-n1c(=O)nc(O)c2cc(F)c(-c3c(N)cccc3F)nc21, TCFH/NMI, DMF, 37.0 mM, 25.0 °C, 1.0 h
  ring closure, yield of all isomers: 46.7%

## CC(C)c1nccc2c1-n1c(=O)nc(O)c3cc(F)c(nc31)-c1c(F)cccc1NC(=O)CS2
[1]; from CC(C)c1nccc(SCC(=O)OC(C)(C)C)c1-n1c(=O)nc(O)c2cc(F)c(-c3c(N)cccc3F)nc21, TCFH/N-methylimidazole, DMF, 7.2 mM, 25.0 °C, 1.0 h, 2 steps
  ring closure, yield of all isomers: 44.4%

## C=CC(=O)N1CCN(c2nc(=O)n3c4nc(c(F)cc24)-c2c(F)cccc2NCCCc2ccnc(C(C)C)c2-3)[C@@H](C)C1 (single isomer, unassigned) [Example 2B]
[3]
  pIC50: 6.00 to 7.00
[4]
  pIC50: < 5.00
[5]
  pIC50: 6.00 to 7.00

## C=CC(=O)N1CCN(c2nc(=O)n3c4nc(c(F)cc24)-c2c(F)cccc2NC(=O)CCc2ccnc(C(C)C)c2-3)[C@@H](C)C1 [Example 1, (S)-2^4-(4-Acryloyl-2-methylpiperazin-1-yl)-2^6,3^6-difluoro-1^2-isopropyl-2^1,2^2-dihydro-4-aza-2(1,7)-pyrido[2,3-d]pyrimidina-1(3,4)-pyridina-3(1,2)-benzenacycloheptaphane-2^2,5-dione]
[3]; Homo sapiens, NCI-H358, 96 h
  pIC50: > 7.00
[4]; Homo sapiens, LS-513, 96 h
  pIC50: < 5.00
[5]; Homo sapiens, NCI-H358, 3 h
  pIC50: 6.00 to 7.00

## C=CC(=O)N1CCN(c2nc(=O)n3c4nc(c(F)cc24)-c2c(F)cccc2N(C)CCCc2ccnc(C(C)C)c2-3)[C@@H](C)C1 [Example 4, (S)-2^4-(4-acryloyl-2-methylpiperazin-1-yl)-2^6,3^6-difluoro-1^2-isopropyl-4-methyl-2^1,2^2-dihydro-4-aza-2(1,7)-pyrido[2,3-d]pyrimidina-1(3,4)-pyridina-3(1,2)-benzenacycloheptaphan-2^2-one]
[3]; Homo sapiens, NCI-H358, 96 h
  pIC50: > 7.00
[4]; Homo sapiens, LS-513, 96 h
  pIC50: < 5.00
[5]; Homo sapiens, NCI-H358, 3 h
  pIC50: > 7.00

## C=CC(=O)N1C[C@H](C)N(c2nc(=O)n3c4nc(c(F)cc24)-c2c(F)cccc2NCCCc2ccnc(C(C)C)c2-3)C[C@H]1C [Example 7A, 2^4-((2S,5R)-4-acryloyl-2,5-dimethylpiperazin-1-yl)-2^6,3^6-difluoro-1^2-isopropyl-2^1,2^2-dihydro-4-aza-2(1,7)-pyrido[2,3-d]pyrimidina-1(3,4)-pyridina-3(1,2)-benzenacycloheptaphan-2^2-one]
[3]; Homo sapiens, NCI-H358, 96 h
  pIC50: 6.00 to 7.00
[4]; Homo sapiens, LS-513, 96 h
  pIC50: < 5.00
[5]; Homo sapiens, NCI-H358, 3 h
  pIC50: 6.00 to 7.00

## C=CC(=O)N1C[C@H](C)N(c2nc(=O)n3c4nc(c(F)cc24)-c2c(F)cccc2NCCCc2ccnc(C(C)C)c2-3)C[C@H]1C [Example 7B, 2^4-((2S,5R)-4-acryloyl-2,5-dimethylpiperazin-1-yl)-2^6,3^6-difluoro-1^2-isopropyl-2^1,2^2-dihydro-4-aza-2(1,7)-pyrido[2,3-d]pyrimidina-1(3,4)-pyridina-3(1,2)-benzenacycloheptaphan-2^2-one]
[3]
  pIC50: > 7.00
[4]
  pIC50: < 5.00
[5]
  pIC50: > 7.00

## C=CC(=O)N1CCN(c2nc(=O)n3c4nc(c(F)cc24)-c2c(F)cccc2NCCSc2ccnc(C(C)C)c2-3)[C@@H](C)C1 [Example 9, (S)-2^4-(4-acryloyl-2-methylpiperazin-1-yl)-2^6,3^6-difluoro-1^2-isopropyl-2^1,2^2-dihydro-7-thia-4-aza-2(1,7)-pyrido[2,3-d]pyrimidina-1(3,4)-pyridina-3(1,2)-benzenacycloheptaphan-2^2-one]
[3]; Homo sapiens, NCI-H358, 96 h
  pIC50: > 7.00
[4]; Homo sapiens, LS-513, 96 h
  pIC50: < 5.00
[5]; Homo sapiens, NCI-H358, 3 h
  pIC50: > 7.00

## C=CC(=O)N1CCN(c2nc(=O)n3c4nc(c(F)cc24)-c2c(Cl)cccc2NCCCc2ccnc(C(C)C)c2-3)[C@@H](C)C1 [Example 10, (S)-2^4-(4-acryloyl-2-methylpiperazin-1-yl)-3^6-chloro-2^6-fluoro-1^2-isopropyl-2^1,2^2-dihydro-4-aza-2(1,7)-pyrido[2,3-d]pyrimidina-1(3,4)-pyridina-3(1,2)-benzenacycloheptaphan-2^2-one]
[3]; Homo sapiens, NCI-H358, 96 h
  pIC50: > 7.00
[4]; Homo sapiens, LS-513, 96 h
  pIC50: < 5.00
[5]; Homo sapiens, NCI-H358, 3 h
  pIC50: > 7.00

## C=CC(=O)N1CCN(c2nc(=O)n3c4nc(c(F)cc24)-c2c(F)cccc2N(C(=O)C(C)(C)O)CCCc2ccnc(C(C)C)c2-3)[C@@H](C)C1 [Example 15, (S)-2^4-(4-acryloyl-2-methylpiperazin-1-yl)-2^6,3^6-difluoro-4-(2-hydroxy-2-methylpropanoyl)-1^2-isopropyl-2^1,2^2-dihydro-4-aza-2(1,7)-pyrido[2,3-d]pyrimidina-1(3,4)-pyridina-3(1,2)-benzenacycloheptaphan-2^2-one]
[3]; Homo sapiens, NCI-H358, 96 h
  pIC50: 6.00 to 7.00
[4]; Homo sapiens, LS-513, 96 h
  pIC50: < 5.00
[5]; Homo sapiens, NCI-H358, 3 h
  pIC50: 6.00 to 7.00

## C=CC(=O)N1CCN(c2nc(=O)n3c4nc(c(F)cc24)-c2c(F)cccc2NCCCc2cccc(C(C)C)c2-3)[C@@H](C)C1 [Example 17, (S)-2^4-(4-acryloyl-2-methylpiperazin-1-yl)-2^6,3^6-difluoro-1^6-isopropyl-2^1,2^2-dihydro-4-aza-2(1,7)-pyrido[2,3-d]pyrimidina-1,3(1,2)-dibenzenacycloheptaphan-2^2-one]
[3]; Homo sapiens, NCI-H358, 96 h
  pIC50: > 7.00
[4]; Homo sapiens, LS-513, 96 h
  pIC50: 5.00 to 6.00
[5]; Homo sapiens, NCI-H358, 3 h
  pIC50: 6.00 to 7.00

## C=CC(=O)N1CCN(c2nc(=O)n3c4nc(c(F)cc24)-c2c(F)cccc2N(C)CCCc2cccc(C(C)C)c2-3)[C@@H](C)C1 [Example 19, (S)-2^4-(4-acryloyl-2-methylpiperazin-1-yl)-2^6,3^6-difluoro-1^6-isopropyl-4-methyl-2^1,2^2-dihydro-4-aza-2(1,7)-pyrido[2,3-d]pyrimidina-1,3(1,2)-dibenzenacycloheptaphan-2^2-one]
[3]; Homo sapiens, NCI-H358, 96 h
  pIC50: > 7.00
[4]; Homo sapiens, LS-513, 96 h
  pIC50: 5.00 to 6.00
[5]; Homo sapiens, NCI-H358, 3 h
  pIC50: > 7.00

## C=CC(=O)N1C[C@H](C)N(c2nc(=O)n3c4nc(c(F)cc24)-c2c(F)cccc2NCCCc2cccc(C(C)C)c2-3)C[C@H]1C [Example 20, 2^4-((2S,5R)-4-acryloyl-2,5-dimethylpiperazin-1-yl)-2^6,3^6-difluoro-1^6-isopropyl-2^1,2^2-dihydro-4-aza-2(1,7)-pyrido[2,3-d]pyrimidina-1,3(1,2)-dibenzenacycloheptaphan-2^2-one]
[3]; Homo sapiens, NCI-H358, 96 h
  pIC50: > 7.00
[4]; Homo sapiens, LS-513, 96 h
  pIC50: < 5.00
[5]; Homo sapiens, NCI-H358, 3 h
  pIC50: > 7.00

## C=CC(=O)N1CCN(c2nc(=O)n3c4nc(c(F)cc24)-c2c(F)cccc2NCCCNc2cccc(C(C)C)c2-3)[C@@H](C)C1 [Example 22, (S)-2^4-(4-acryloyl-2-methylpiperazin-1-yl)-2^6,3^6-difluoro-1^6-isopropyl-2^1,2^2-dihydro-4,8-diaza-2(1,7)-pyrido[2,3-d]pyrimidina-1,3(1,2)-dibenzenacyclooctaphan-2^2-one]
[3]; Homo sapiens, NCI-H358, 96 h
  pIC50: > 7.00
[4]; Homo sapiens, LS-513, 96 h
  pIC50: 6.00 to 7.00
[5]; Homo sapiens, NCI-H358, 3 h
  pIC50: 6.00 to 7.00

## C=CC(=O)N1CCN(c2nc(=O)n3c4nc(c(F)cc24)-c2c(F)cccc2NCCCN(C)c2cccc(C(C)C)c2-3)[C@@H](C)C1 [Example 28, (S)-2^4-(4-acryloyl-2-methylpiperazin-1-yl)-2^6,3^6-difluoro-1^6-isopropyl-8-methyl-2^1,2^2-dihydro-4,8-diaza-2(1,7)-pyrido[2,3-d]pyrimidina-1,3(1,2)-dibenzenacyclooctaphan-2^2-one]
[3]; Homo sapiens, NCI-H358, 96 h
  pIC50: > 7.00
[4]; Homo sapiens, LS-513, 96 h
  pIC50: < 5.00
[5]; Homo sapiens, NCI-H358, 3 h
  pIC50: 6.00 to 7.00

## (S)-2^4-(4-acryloyl-2-methylpiperazin-1-yl)-2^6,3^6-difluoro-1^2-isopropyl-2^1,2^2-dihydro-8-thia-4-aza-2(1,7)-pyrido[2,3-d]pyrimidina-1(3,4)-pyridina-3(1,2)-benzenacyclooctaphan-2^2-one [Example 8]
[3]
  pIC50: > 7.00
[4]
  pIC50: < 5.00
[5]
  pIC50: > 7.00
